Experimental data as given in PubChem BioAssay AID1259411 (Chemical Carcinogenesis Research Information System (CCRIS), 2018).
Active and inactive are the calls of the source. How the calls were made is not given here.

Test system: rodent carcinogenicity bioassays, tumor incidence
Test: CCRIS carcinogenicity studies
In short: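 Archive of carcinogenicity, mutagenicity, tumor promotion and tumor inhibition results drawn from journals, NCI reports and other sources, expert-reviewed; covers 1985-2011 and is no longer updated.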

**Q.** With CC(O)CN(C)N=O (stereo not given) as the compound, how does the carcinogen call (Species: HAMSTER, Strain/Sex: SYRIAN/FEMALE, Route: GAVAGE, Dose: 0, 1 MG IN 0.2 ML WATER 1/WK FOR 21 WK FOR A TOTAL DOSE OF 21 MG (STUDY DURATION: 45 WK), Tumor Site: Type of Lesion: LIVER: HEMANGIOSARCOMA OR HEMANGIOMA, LUNG: ALVEOLAR/BRONCHIOLAR ADENOMA, NASAL MUCOSA: CARCINOMA, Tumor Site: Type of Lesion: LIVER: HEMANGIOSARCOMA OR HEMANGIOMA, LUNG: ALVEOLAR/BRONCHIOLAR ADENOMA, NASAL MUCOSA: CARCINOMA) read?
**A.** Its carcinogen call is “active; positive”.

**Q.** And the carcinogen call (Species: HAMSTER, Strain/Sex: SYRIAN/FEMALE, Route: GAVAGE, Dose: 0, 5 MG IN 0.2 ML WATER FOR 4 WK THEN 2 MG 1/WK FOR 14 WK FOR A TOTAL DOSE OF 48 MG (STUDY DURATION: 45 WK), Tumor Site: Type of Lesion: LIVER: HEMANGIOSARCOMA, HEPATOCELLULAR ADENOMA, CHOLANGIOCELLULAR CARCINOMA, CHOLANGIOCELLULAR ADENOMA, PANCREAS: DUCTAL)?
**A.** The carcinogen call was “active; positive”.

**Q.** And the carcinogen call (Species: RAT, Strain/Sex: F344/FEMALE, Route: GAVAGE, Dose: 0, 4, 10 MG/WK FOR A TOTAL DOSE OF 0.6, 0.4 MMOL (STUDY DURATION: 50 WK), Dose: 0, 4, 10 MG/WK FOR A TOTAL DOSE OF 0.6, 0.4 MMOL (STUDY DURATION: 50 WK), Tumor Site: Type of Lesion: ESOPHAGUS: TUMOR, KIDNEY: TUMOR, THYROID: TUMOR, LUNG: TUMOR, Tumor Site: Type of Lesion: ESOPHAGUS: TUMOR, KIDNEY: TUMOR, THYROID: TUMOR, LUNG: TUMOR)?
**A.** Its carcinogen call is “active; positive”.

**Q.** And the carcinogen call (Species: RAT, Strain/Sex: F344/MALE, Route: GAVAGE, Dose: 0, 4 MG/WK FOR A TOTAL DOSE OF 0.6 MMOL (STUDY DURATION: 50 WK), Tumor Site: Type of Lesion: ESOPHAGUS: TUMOR, NASAL MUCOSA: TUMOR)?
**A.** Its carcinogen call is “active; positive”.

**Q.** And the carcinogen call (Species: RAT, Strain/Sex: WISTAR/MALE, Route: INTRAPERITONEAL, Dose: 0, 4.4, 8.8, 17.6 MG/KG IN 0.9% SALINE 1/WK FOR 12 WK (STUDY DURATION: 26 WK), Dose: 0, 4.4, 8.8, 17.6 MG/KG IN 0.9% SALINE 1/WK FOR 12 WK (STUDY DURATION: 26 WK), Tumor Site: Type of Lesion: NASAL CAVITY: CARCINOMA, PAPILLOMA)?
**A.** The carcinogen call was “active; positive”.

**Q.** Cc1c2c(c(C)c3c1ccc1ccccc13)CCCC2 was tested. Which carcinogen call (Species: MOUSE, Strain/Sex: SWISS/FEMALE, Route: DERMAL, Dose: 0, 41 UG IN ACETONE (0.2%) 2/WK FOR 65 WK FOR A TOTAL DOSE OF 0, 5.3 MG (STUDY DURATION: 80 WK), Dose: 0, 41 UG IN ACETONE (0.2%) 2/WK FOR 65 WK FOR A TOTAL DOSE OF 0, 5.3 MG (STUDY DURATION: 80 WK), Tumor Site: Type of Lesion: SKIN: CARCINOMA, SKIN: PAPILLOMA) did it give?
**A.** Its carcinogen call is “active; positive”.

**Q.** What does the source list for OCc1ccn2c1[C@H](O)CC2?
**A.** carcinogen call (Species: MOUSE, Strain/Sex: SWISS/FEMALE, Route: DERMAL/SUBCUTANEOUS, Dose: 0, 20 MG/KG IN 0.2 ML ACETONE TO SHAVED MID-BACK REGION AND 0, 20 MG/KG IN 0.1 ML PHOSPHATE BUFFER TO INTERSCAPULAR REGI, Dose: 0, 20 MG/KG IN 0.2 ML ACETONE TO SHAVED MID-BACK REGION AND 0, 20 MG/KG IN 0.1 ML PHOSPHATE BUFFER TO INTERSCAPULAR REGI, Tumor Site: Type of Lesion: SKIN: BASAL CELL CARCINOMA): active; positive; carcinogen call (Species: MOUSE, Strain/Sex: SWISS/FEMALE, Route: DERMAL, Dose: 0, 20 MG/KG IN 0.2 ML ACETONE 1/WK FOR 4 WK AFTER 6 MO ANIMALS WITHOUT TUMORS TREATED AGAIN 1/WK FOR 2 WK (STUDY DURATIO, Tumor Site: Type of Lesion: SKIN: BASAL CELL CARCINOMA): active; positive; carcinogen call (Species: MOUSE, Strain/Sex: SWISS/FEMALE, Route: SUBCUTANEOUS, Dose: 0, 20 MG/KG IN 0.1 ML PHOSPHATE BUFFER 1/WK FOR 4 WK AFTER 6 MO ANIMALS WITHOUT TUMORS TREATED AGAIN 1/WK FOR 2 WK (STUD, Tumor Site: Type of Lesion: SKIN: BASAL CELL CARCINOMA): active; positive

**Q.** Which results are given for C#CCO?
**A.** carcinogen call (Species: Mouse, Strain/Sex: B6C3F1/Female (50/Group), Route: Inhalation, Dose: 0, 8, 16, 32 ppm for 6 hr plus 14 min per d, 5 d per wk for 105 wk (Study duration: 105 wk), Dose: 0, 8, 16, 32 ppm for 6 hr plus 14 min per d, 5 d per wk for 105 wk (Study duration: 105 wk), Tumor Site: Type of Lesion: Respiratory epithelium: Adenoma (0/50; 2/50; 4/50; 6/50)): active; positive. conclusions of authors: some evidence of carcinogenic activity.; carcinogen call (Species: Mouse, Strain/Sex: B6C3F1/Male (50/Group), Route: Inhalation, Dose: 0, 8, 16, 32 ppm for 6 hr plus 14 min per d, 5 d per wk for 105 wk (Study duration: 105 wk), Dose: 0, 8, 16, 32 ppm for 6 hr plus 14 min per d, 5 d per wk for 105 wk (Study duration: 105 wk), Tumor Site: Type of Lesion: Respiratory epithelium: Adenoma (0/49; 1/50; 4/50; 7/50), Harderian gland (3/50; 10/50; 6/50; 11/50), Tumor Site: Type of Lesion: Respiratory epithelium: Adenoma (0/49; 1/50; 4/50; 7/50), Harderian gland (3/50; 10/50; 6/50; 11/50)): active; positive. conclusions of authors: some evidence of carcinogenic activity based o; carcinogen call (Species: Rat, Strain/Sex: F344/N / Female (50/Group), Route: Inhalation, Dose: 0, 16, 32, 64 ppm for 6 hr plus 14 min per d, 5 d per wk for 105 wk (Study duration: 105 wk), Dose: 0, 16, 32, 64 ppm for 6 hr plus 14 min per d, 5 d per wk for 105 wk (Study duration: 105 wk), Tumor Site: Type of Lesion: None): inactive; negative. conclusions of authors: no evidence of carcinogenic activity.; carcinogen call (Species: Rat, Strain/Sex: F344/N / Male (50/Group), Route: Inhalation, Dose: 0, 16, 32, 64 ppm for 6 hr plus 14 min per d, 5 d per wk for 105 wk (Study duration: 105 wk), Dose: 0, 16, 32, 64 ppm for 6 hr plus 14 min per d, 5 d per wk for 105 wk (Study duration: 105 wk), Tumor Site: Type of Lesion: Respiratory epithelium: Adenoma (0/49; 0/49; 0/50; 3/49)): inactive; negative (although incidence at highest dose exceeded historical controls). con

**Q.** Which carcinogen call (Species: DOG, Strain/Sex: BEAGLE, Route: INTRAVESICULAR, Dose: 5 MG IN DMSO EVERY TWO WK FOR 30 MO, Tumor Site: Type of Lesion: URINARY BLADDER: PAPILLARY TRANSITIONAL CELL CARCINOMA (INVASIVE)) does the source give for ONc1ccc2ccccc2c1 here?
**A.** Its carcinogen call is “active; positive”.

**Q.** And the carcinogen call (Species: MOUSE, Strain/Sex: BALB, Route: SUBCUTANEOUS, Dose: 100 UG IN AQUEOUS GELATIN 1/D FOR 5 D, Tumor Site: Type of Lesion: LUNG: ADENOMA)?
**A.** Its carcinogen call is “active; positive”.

**Q.** What about the carcinogen call (Species: MOUSE, Strain/Sex: SWISS/FEMALE, Route: SUBCUTANEOUS, Dose: 100 UG IN GELATIN ON D 1, 3 AND 5 OF LIFE, Tumor Site: Type of Lesion: LUNG: ADENOMA, CARCINOMA) of the same compound?
**A.** The carcinogen call was “active; positive”.

**Q.** What about the carcinogen call (Species: MOUSE, Strain/Sex: SWISS/MALE, Route: SUBCUTANEOUS, Dose: 100 UG IN GELATIN ON D 1, 3 AND 5 OF LIFE, Tumor Site: Type of Lesion: LIVER: HEPATOMA) of the same compound?
**A.** Its carcinogen call is “active; positive”.

**Q.** And the carcinogen call (Species: RAT, Strain/Sex: STRAIN-CB/MALE, Route: INTRAPERITONEAL, Dose: 50 MG/KG IN ARACHIS OIL 2/WK FOR 3 MO, Tumor Site: Type of Lesion: PERITONEAL CAVITY: SARCOMA, CARCINOMA)?
**A.** Its carcinogen call is “active; positive”.

**Q.** Which results are given for c1ccc2c(c1)ccc1nc3c(ccc4ccccc43)cc12?
**A.** carcinogen call (Species: MOUSE, Route: DERMAL, Tumor Site: Type of Lesion: INTEGUMENTARY SYSTEM (SKIN)): active; positive; carcinogen call (Species: MOUSE, Route: SUBCUTANEOUS, Tumor Site: Type of Lesion: INJECTION SITE, LUNG): active; positive; carcinogen call (Species: RAT, Strain/Sex: OSBORNE-MENDEL/FEMALE, Route: LUNG IMPLANT, Dose: 0, 0.1, 0.3, 1.0 MG IN BEESWAX/TRICAPRYLIN (STUDY DURATION: LIFETIME), Dose: 0, 0.1, 0.3, 1.0 MG IN BEESWAX/TRICAPRYLIN (STUDY DURATION: LIFETIME), Tumor Site: Type of Lesion: LUNG: EPIDERMOID CARCINOMA): active; positive

**Q.** How did the carcinogen call (Species: MOUSE, Strain/Sex: B6C3F1/FEMALE, Route: ORAL, Dose: 0, 300, 600, 1300 PPM IN DIET FOR 104 WK (STUDY DURATION: 104 WK), Dose: 0, 300, 600, 1300 PPM IN DIET FOR 104 WK (STUDY DURATION: 104 WK), Tumor Site: Type of Lesion: LIVER: HEPATOCELLULAR ADENOMA, HEPATOCELLULAR CARCINOMA, OR HEPATOBLASTOMA) turn out when CCC1(c2ccccc2)C(=O)NCNC1=O was run?
**A.** Its carcinogen call is “active; positive”.

**Q.** What about the carcinogen call (Species: MOUSE, Strain/Sex: B6C3F1/MALE, Route: ORAL, Dose: 0, 300, 600, 1300 PPM IN DIET FOR 104 WK (STUDY DURATION: 104 WK), Dose: 0, 300, 600, 1300 PPM IN DIET FOR 104 WK (STUDY DURATION: 104 WK), Tumor Site: Type of Lesion: LIVER: HEPATOCELLULAR ADENOMA, HEPATOCELLULAR CARCINOMA, OR HEPATOBLASTOMA, THYROID GLAND: FOLLICULAR CELL ADENOMA) of the same compound?
**A.** Its carcinogen call is “active; positive”.

**Q.** What about the carcinogen call (Species: RAT, Strain/Sex: F344/FEMALE, Route: ORAL, Dose: 0, 600, 1300, 2500 PPM IN DIET FOR 104 WK (STUDY DURATION: 104 WK), Dose: 0, 600, 1300, 2500 PPM IN DIET FOR 104 WK (STUDY DURATION: 104 WK)) of the same compound?
**A.** Its carcinogen call is “inactive; negative”.

**Q.** What about the carcinogen call (Species: RAT, Strain/Sex: F344/MALE, Route: ORAL, Dose: 0, 600, 1300, 2500 PPM IN DIET FOR 104 WK (STUDY DURATION: 104 WK), Dose: 0, 600, 1300, 2500 PPM IN DIET FOR 104 WK (STUDY DURATION: 104 WK), Tumor Site: Type of Lesion: THYROID GLAND: FOLLICULAR CELL ADENOMA, FOLLICULAR CELL ADENOMA OR CARCINOMA, KIDNEY: RENAL TUBULE ADENOMA OR CARCINOMA) of the same compound?
**A.** The carcinogen call was “equivocal”.
